Tested on: HBsAg in HepG2.2.15 cells
Experiment: HBsAg assay: inhibition of HBsAg in HepG2.2.15 cells (chemiluminescence immunoassay of supernatant)
Assay type: cell-based, hepatitis B virus
Conditions: Hepatitis B virus, HepG2.2.15, 144 h, read-out: sAg EC50, HepG2.2.15 cells, supernatant collected at day 6 after exposure, HBsAg CLIA
Summary of the method: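 HepG2.2.15 cells treated with serially diluted compounds (0.5% DMSO), medium and compound refreshed after 2-3 days; supernatant HBsAg measured by chemiluminescence immunoassay at day 6. EC50 from dose-response curves; viability assessed in parallel by CellTiter-Glo.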

Row | Compound | EC50 [µM]
1 | CCC1c2cc(F)c(OC)cc2CN1c1ccnc(C(=O)NS(C)(=O)=O)n1 (stereo not drawn) [Example 104, 4-(1-Ethyl-6-fluoro-5-methoxyisoindolin-2-yl)-N-(methylsulfonyl)pyrimidine-2-carboxamide] | 5
2 | CCC1c2cc(F)c(OC)cc2CN1c1cnc(C(=O)Nc2nccn2C)nc1 (stereo not drawn) [Example 105, 5-(1-Ethyl-6-fluoro-5-methoxyisoindolin-2-yl)-N-(1-methyl-1H-imidazol-2-yl)pyrimidine-2-carboxamide] | 6
3 | CCC1c2cc(F)c(OC)cc2CN1c1cnc(C(=O)Nc2ccccn2)nc1 (stereo not drawn) [Example 106, 5-(1-Ethyl-6-fluoro-5-methoxyisoindolin-2-yl)-N-(pyridin-2-yl)pyrimidine-2-carboxamide] | 2
4 | O=c1[nH]cccc1-c1nccc(N2CCc3cc(F)c(F)cc3C2)n1 [Example 111, 3-[4-(6,7-Difluoro-3,4-dihydro-1H-isoquinolin-2-yl)pyrimidin-2-yl]pyridin-2-ol] | 46
5 | CCC1c2ccc(F)c(F)c2CCN1c1cc(=O)c(C(=O)O)c[nH]1 (stereo not drawn) [Example 112, 6-(1-Ethyl-5,6-difluoro-3,4-dihydro-1H-isoquinolin-2-yl)-4-hydroxy-pyridine-3-carboxylic Acid] | 11
6 | CCC1c2ccc(F)c(F)c2CCN1c1cnc(C(=O)O)nc1 (stereo not drawn) [Example 113, 5-(1-Ethyl-5,6-difluoro-3,4-dihydro-1H-isoquinolin-2-yl)pyrimidine-2-carboxylic Acid] | 2
7 | CCC1c2cc(F)c(OC)cc2CCN1c1cnc(C(N)=O)nc1 (stereo not drawn) [Example 118, 5-(1-Ethyl-7-fluoro-6-methoxy-3,4-dihydro-1H-isoquinolin-2-yl)pyrimidine-2-carboxamide] | 0.52
8 | CCC1c2cc(F)c(F)cc2CN1c1cnc(C(N)=O)nc1 (stereo not drawn) [Example 119, 5-(1-Ethyl-5,6-difluoroisoindolin-2-yl)pyrimidine-2-carboxamide] | 42
9 | CCC1c2cc(F)c(OC)cc2CCN1c1ccnc(C(N)=O)n1 (stereo not drawn) [Example 120, 4-(1-Ethyl-7-fluoro-6-methoxy-3,4-dihydro-1H-isoquinolin-2-yl)pyrimidine-2-carboxamide] | 14
10 | CCC1c2cc(F)c(F)cc2CN1c1ccnc(C(N)=O)n1 (stereo not drawn) [Example 121, 4-(1-Ethyl-5,6-difluoroisoindolin-2-yl)pyrimidine-2-carboxamide] | 18
11 | CCC1c2ccccc2CCN1c1cnc2c(ccc3cccnc32)c1 (stereo not drawn) [Example 122, 3-(1-Ethyl-3,4-dihydroisoquinolin-2(1H)-yl)-1,10-phenanthroline] | 1.2
12 | CC1c2ccc(F)c(F)c2CCN1c1cnc2c(ccc3cccnc32)c1 (stereo not drawn) [Example 123, 3-(5,6-Difluoro-1-methyl-3,4-dihydroisoquinolin-2(1H)-yl)-1,10-phenanthroline] | 0.44
13 | CCC1c2ccccc2CCN1c1cnc2c(NC)nccc2c1 (stereo not drawn) [Example 124, 3-(1-Ethyl-3,4-dihydroisoquinolin-2(1H)-yl)-N-methyl-1,7-naphthyridin-8-amine] | 22
14 | CCC1c2cc(F)c(OC)cc2CCN1c1cnc2c(=O)n(C)cnc2c1 (stereo not drawn) [Example 125, 7-(1-Ethyl-7-fluoro-6-methoxy-3,4-dihydroisoquinolin-2(1H)-yl)-3-methylpyrido[3,2-d]pyrimidin-4(3H)-one] | 1.6
15 | CCC1c2ccc(F)c(F)c2OCCN1c1ccnc(-c2ncccn2)n1 (stereo not drawn) [Example 126, 5-Ethyl-8,9-difluoro-4-(2-pyrimidin-2-ylpyrimidin-4-yl)-3,5-dihydro-2H-1,4-benzoxazepine] | 28
16 | CCC1c2cc(F)c(OC)cc2CCN1c1ccnc(-c2ncccn2)n1 (stereo not drawn) [Example 127, 2-(2,2′-Bipyrimidin-4-yl)-1-ethyl-7-fluoro-6-methoxy-1,2,3,4-tetrahydroisoquinoline] | 0.02
17 | CCC1c2cc(F)c(OC)cc2CCN1c1cnc(-c2ncccn2)nc1 (stereo not drawn) [Example 132, 2-(2,2′-Bipyrimidin-5-yl)-1-ethyl-7-fluoro-6-methoxy-1,2,3,4-tetrahydroisoquinoline] | 0.007
18 | CCC1c2cc(F)c(OC)cc2CCCN1c1ccnc(-c2ncccn2)n1 (stereo not drawn) [Example 135, 2-([2,2′-Bipyrimidin]-4-yl)-1-ethyl-8-fluoro-7-methoxy-2,3,4,5-tetrahydro-1H-benzo[c]azepine] | 1
